Reference: patent US9021738B2, “Control of termites, fire ants and carpenter ants” (priority 2008, dated 2015)
Where two headings read alike, the source gives them in different places.

Columns and labels:
drywood termites = conditions: Petri dish assays, as claimed in prior art; cited from earlier work
[1] = tested on: Formosan subterranean termites; format: in vivo, Coptotermes formosanus; conditions: for termites killed: 25 mg/liter volume
Description: (§1) Formosan subterranean termites were collected from bucket traps placed in City Park, New Orleans, La. Altogether five colonies designated 1314, 1559, 1732, 1743 and 1756 were used in the tests. After collection, the termites (primarily workers and soldiers) were transferred to plastic boxes with moist spruce slats. The boxes were stored in an incubator maintained at 28° C., 65% RH, and constant darkness. Termites were used within one month of their collection.
(§2) Vapor Toxicity Under Subterranean Conditions. This test was also conducted in the one liter Qorpak™ bottles. A 35 by 40 by 7 mm piece of moist spruce was placed at the bottom of the bottle and covered with 40 g fine-sifted black soil. One hundred termite workers were released into each bottle and allowed to tunnel under the soil and into the wood. After 3 days, a test chemical was applied to a filter paper and suspended from the cap-liner. The chemicals were tested at 10, 25 and 50 mg. […] The test was conducted with termites from 3 colonies and replicated 3 times.
Because in their natural environment the subterranean termites are not expected to be exposed to a chemical in open space, we conducted the next test by placing 100 workers termites in spruce slats covered with a layer of soil, all placed in the same glass bottles. Tests were conducted at 25 mg dose. After 2 days tetrahydrocarvone (both d- and l-isomers) caused 100% mortality.

[2] = tested on: Formosan subterranean termites; assay: Assay for Vapor Toxicity; format: in vivo, Coptotermes formosanus
Description: as §1
Assay for Vapor Toxicity. This test was conducted in 960 ml wide-mouth clear Qorpak™ (All-Pak, Inc.) bottles with PTFE lined caps. A 60 mm diameter glass Petri dish with a moist filter paper and 50 termite workers was placed at the bottom of each bottle. The test chemical was applied to a 1 cm diameter filter paper and suspended with an insect pin from the cap-liner. Each chemical was initially tested at 1 mg in the one liter bottle then at 0.1 and 0.5 mg. Since 0.1 and 0.5 mg doses caused very low and 100% mortality respectively, the final test was carried out at 0.25 mg. Each chemical was tested with different termite colonies and replicated three times. The bottles were placed in the incubator. Mortality was recorded after 1, 2 and 3 days by quickly taking the glass Petri dish with the termites out of the bottle (with a pair of long forceps) and replacing it after removing the dead workers.

fire ants = assay: Vapor Toxicity Under Subterranean Conditions with fire ants; format: in vivo, Solenopsis invicta; conditions: 25 mg, in 24 hours
Description: as §2
The same Vapor Toxicity Under Subterranean Conditions test as described in paragraph [0023] was conducted except that fire ants were employed instead of termites.

carpenter ants = assay: Sealed jar test on carpenter ants; format: in vivo, Camponotus chromaoides; conditions: one drop (approximately 30 mg) on filter paper in sealed 16 oz jar, within 24 hours
Description: One drop (approximately 30 mg) of tetrahydro l-carvone test compound was applied to filter paper within a sealed jar (16 oz glass jar, 3½ inch diameter, 3⅞ inch high with plastic lids) containing ten carpenter (Camponotus chromaoides) ants per replicate with there being five replicates. Five negative controls with no test compounds were also run. The tetrahydro-1-carvone provided 100% mortality to the carpenter ants within 24 hours while the control produced 6% mortality over the same 24 hour period.

| Compound | mortality of drywood and other termites (drywood termites) | efficacy against termites in soil and wood [1] | also measured |
| --- | --- | --- | --- |
| C=C(C)C1CC=C(C)[C@@H](O)C1 (stereo partly shown) [carveol] | high mortality | totally ineffective |  |
| CC(C)=CCCC(C)CC=O (stereo not shown) [citronellal] | high mortality | totally ineffective |  |
| C=C(C)[C@@H]1CC[C@@H](C)C(=O)C1 [dihydro-l-carvone] |  |  | termites killed ([1]; in 48 hours): 100% |
| CC(C)=CCC/C(C)=C/CO [geraniol] | high mortality | totally ineffective |  |
| Cc1ccc(C(C)C)cc1 [p-cymene] | high mortality | totally ineffective |  |
| CC(C)[C@@H]1CC[C@@H](C)C(=O)C1 [tetrahydro-d-carvone] |  |  | termites killed ([2]; 0.25 mg/liter volume, in 3 days): 75%; termites killed ([2]; 0.5 mg/liter volume, in 1 day): 100%; fire ants killed (fire ants): 100% |
| CC(C)[C@@H]1CC[C@@H](C)C(=O)C1 [tetrahydro-l-carvone] |  |  | termites killed ([2]; 1 mg per liter volume, in 1 day): 100%; termites killed ([1]; in 24 hrs): 100%; mortality to carpenter ants (carpenter ants): 100% |
| CC(C)[C@@H]1CC[C@@H](C)C(=O)C1 [tetrahydrocarvone] |  |  | mortality ([1]; 25 mg dose, after 2 days, 100 worker termites in spruce slats covered with soil): 100% |
